Active and inactive are the calls of the source. How the calls were made is not given here.
Test system: rodent lifetime carcinogenesis bioassay, tumor incidence TD50
Assay: chronic cancer bioassays in animals – CPDB, compiled studies (AID 1745844)

With `C1CO1` the TD50 (mouse, strain B6C3F1, females, inhaled, site: Harderian gland + lung, lesion: papillary cystadenoma, NOS + alveolar/bronchiolar adenoma + alveolar/bronchiolar carcinoma, dosed 102 weeks, study length 104 weeks) was 45.8 mg/kg/day, the TD50 (mouse, strain B6C3F1, females, inhaled, site: Harderian gland, lesion: papillary cystadenoma, NOS, dosed 102 weeks, study length 104 weeks) was 142 mg/kg/day and the TD50 (mouse, strain B6C3F1, females, inhaled, site: any site (literature study), lesion: several types, types named in the paper, dosed 102 weeks, study length 104 weeks) was 103 mg/kg/day. It also gave a TD50 (mouse, strain B6C3F1, females, inhaled, site: duodenum + Harderian gland + kidney + lung + mediastinum + mammary gland + mesenteric lymph node + multiple organs + spleen + uterus, lesion: malignant lymphoma, NOS + papillary cystadenoma, NOS + alveolar/bronchiolar adenoma + alveolar/bronchiolar carcinoma + adenocarc, dosed 102 weeks, study length 104 weeks) of 39.2 mg/kg/day, a TD50 (mouse, strain B6C3F1, females, inhaled, site: duodenum + kidney + mediastinum + mammary gland + mesenteric lymph node + multiple organs + spleen + uterus, lesion: malignant lymphoma, NOS + adenocarcinoma, NOS + adenosquamous carcinoma + malignant lymphoma, histiocytic type + adenoma, NOS, dosed 102 weeks, study length 104 weeks) of 79.2 mg/kg/day and a TD50 (mouse, strain B6C3F1, females, inhaled, site: duodenum + kidney + mediastinum + mesenteric lymph node + multiple organs + spleen + uterus, lesion: malignant lymphoma, NOS + malignant lymphoma, histiocytic type, dosed 102 weeks, study length 104 weeks) of 139 mg/kg/day. It also gave a TD50 (mouse, strain B6C3F1, females, inhaled, site: liver, lesion: hepatocellular adenoma + hepatocellular carcinoma + neoplastic nodule, dosed 102 weeks, study length 104 weeks) of 149 mg/kg/day, a TD50 (mouse, strain B6C3F1, females, inhaled, site: liver, lesion: hepatocellular adenoma, dosed 102 weeks, study length 104 weeks) of 75.8 mg/kg/day and a TD50 (mouse, strain B6C3F1, females, inhaled, site: lung, lesion: alveolar/bronchiolar adenoma + alveolar/bronchiolar carcinoma, dosed 102 weeks, study length 104 weeks) of 61.8 mg/kg/day. The TD50 (mouse, strain B6C3F1, females, inhaled, site: lung, lesion: alveolar/bronchiolar adenoma, dosed 102 weeks, study length 104 weeks) was 87.5 mg/kg/day, the TD50 (mouse, strain B6C3F1, females, inhaled, site: lung, lesion: alveolar/bronchiolar carcinoma, dosed 102 weeks, study length 104 weeks) was 200 mg/kg/day and the TD50 (mouse, strain B6C3F1, females, inhaled, site: mammary gland, lesion: adenocarcinoma, NOS + adenosquamous carcinoma, dosed 102 weeks, study length 104 weeks) was 76.3 mg/kg/day. The TD50 (mouse, strain B6C3F1, females, inhaled, site: uterus, lesion: adenocarcinoma, NOS + adenoma, NOS, dosed 102 weeks, study length 104 weeks) was 250 mg/kg/day, the TD50 (mouse, strain B6C3F1, females, inhaled, site: uterus, lesion: adenocarcinoma, NOS, dosed 102 weeks, study length 104 weeks) was 297 mg/kg/day and the TD50 (mouse, strain B6C3F1, males, inhaled, site: Harderian gland + lung, lesion: papillary cystadenoma, NOS + alveolar/bronchiolar adenoma + alveolar/bronchiolar carcinoma, dosed 102 weeks, study length 104 weeks) was 51.2 mg/kg/day. The TD50 (mouse, strain B6C3F1, males, inhaled, site: Harderian gland, lesion: papillary cystadenoma, NOS, dosed 102 weeks, study length 104 weeks) was 110 mg/kg/day, the TD50 (mouse, strain B6C3F1, males, inhaled, site: any site (literature study), lesion: several types, types named in the paper, dosed 102 weeks, study length 104 weeks) was 108 mg/kg/day and the TD50 (mouse, strain B6C3F1, males, inhaled, site: liver, lesion: hepatocellular adenoma + hepatocellular carcinoma + neoplastic nodule, dosed 102 weeks, study length 104 weeks) was 273 mg/kg/day. The TD50 (mouse, strain B6C3F1, males, inhaled, site: lung, lesion: alveolar/bronchiolar adenoma + alveolar/bronchiolar carcinoma, dosed 102 weeks, study length 104 weeks) was 65.7 mg/kg/day, the TD50 (mouse, strain B6C3F1, males, inhaled, site: lung, lesion: alveolar/bronchiolar adenoma, dosed 102 weeks, study length 104 weeks) was 181 mg/kg/day and the TD50 (mouse, strain B6C3F1, males, inhaled, site: lung, lesion: alveolar/bronchiolar carcinoma, dosed 102 weeks, study length 104 weeks) was 110 mg/kg/day. The TD50 (rat, strain Fischer 344/Mai fBR, females, inhaled, site: brain, lesion: several types, types named in the paper, dosed 76 weeks, study length 78 weeks) was 237 mg/kg/day, the TD50 (rat, strain Fischer 344/Mai fBR, females, inhaled, site: brain, lesion: several types, types named in the paper, dosed 101 weeks, study length 104 weeks) was 143 mg/kg/day and the TD50 (rat, strain Fischer 344/Mai fBR, females, inhaled, site: pituitary gland, lesion: adenoma, dosed 76 weeks, study length 78 weeks) was 29.8 mg/kg/day (inactive). For the same molecule, the TD50 (rat, strain Fischer 344/Mai fBR, males, inhaled, site: adrenal gland, lesion: pheochromocytoma, dosed 76 weeks, study length 78 weeks) was 26.1 mg/kg/day (inactive), the TD50 (rat, strain Fischer 344/Mai fBR, males, inhaled, site: brain, lesion: astrocytoma, dosed 76 weeks, study length 78 weeks) was 102 mg/kg/day and the TD50 (rat, strain Fischer 344/Mai fBR, males, inhaled, site: brain, lesion: several types, types named in the paper, dosed 105 weeks, study length 108 weeks) was 70.7 mg/kg/day. For the same molecule, the carcinogen call (rat, strain Fischer 344/Mai fBR, males, inhaled, site: pituitary gland, lesion: adenoma, dosed 76 weeks, study length 78 weeks) was “negative (inactive)”, the carcinogen call (rat, strain Fischer 344/Mai fBR, males, inhaled, site: testis, lesion: interstitial-cell tumor, dosed 76 weeks, study length 78 weeks) was “negative (inactive)” and the TD50 (rat, strain Fischer 344, males, inhaled, site: brain, lesion: glioma, dosed 101 weeks, study length 104 weeks) was 121 mg/kg/day. The TD50 (rat, strain Fischer 344, males, inhaled, site: peritoneum, lesion: mesothelioma, dosed 101 weeks, study length 104 weeks) was 30.8 mg/kg/day, the TD50 (rat, strain Fischer 344, males, inhaled, site: spleen, lesion: mononuclear-cell leukemia, dosed 101 weeks, study length 104 weeks) was 47.3 mg/kg/day and the TD50 (rat, strain Sprague-Dawley, females, by gavage, site: forestomach, lesion: squamous-cell carcinoma, dosed 107 weeks, study length 150 weeks) was 10.6 mg/kg/day. The TD50 (rat, strain Sprague-Dawley, females, by gavage, site: mammary gland, lesion: adenofibroma, dosed 107 weeks, study length 150 weeks) was 10 mg/kg/day (inactive) and the TD50 (rat, strain Sprague-Dawley, females, by gavage, site: stomach, lesion: several types, types named in the paper, dosed 107 weeks, study length 150 weeks) was 7.43 mg/kg/day.
Molecule `Cc1cc(Cc2ccc(N)c(C)c2)ccc1N` has a TD50 (rat, strain Charles River CD (Sprague-Dawley), females, in feed, site: liver, lesion: cholangiocarcinoma, dosed 82 weeks, study length 82 weeks) of 96.3 mg/kg/day, a TD50 (rat, strain Charles River CD (Sprague-Dawley), females, in feed, site: liver, lesion: hepatocellular adenoma, dosed 82 weeks, study length 82 weeks) of 30.5 mg/kg/day and a TD50 (rat, strain Charles River CD (Sprague-Dawley), females, in feed, site: liver, lesion: hepatocellular carcinoma, dosed 82 weeks, study length 82 weeks) of 7.92 mg/kg/day. For the same molecule, the TD50 (rat, strain Charles River CD (Sprague-Dawley), males, in feed, site: liver, lesion: hemangioma, dosed 68 weeks, study length 68 weeks) was 35.2 mg/kg/day, the TD50 (rat, strain Charles River CD (Sprague-Dawley), males, in feed, site: liver, lesion: hepatocellular adenoma, dosed 68 weeks, study length 68 weeks) was 17 mg/kg/day and the TD50 (rat, strain Charles River CD (Sprague-Dawley), males, in feed, site: liver, lesion: hepatocellular carcinoma, dosed 68 weeks, study length 68 weeks) was 12.4 mg/kg/day. For the same molecule, the TD50 (rat, strain Charles River CD (Sprague-Dawley), males, in feed, site: mammary gland, lesion: fibroadenoma, dosed 68 weeks, study length 68 weeks) was 6.91 mg/kg/day and the TD50 (rat, strain Charles River CD (Sprague-Dawley), males, in feed, site: skin, lesion: fibroma, dosed 68 weeks, study length 68 weeks) was 8.19 mg/kg/day.
`O=CCC=O` was tested, and the TD50 (mouse, strain B6C3F1, females, by gavage, site: any site (literature study), lesion: several types, types named in the paper, dosed 103 weeks, study length 104 weeks) was 274 mg/kg/day (inactive), the TD50 (mouse, strain B6C3F1, females, by gavage, site: liver, lesion: hepatocellular adenoma + hepatocellular carcinoma + neoplastic nodule, dosed 103 weeks, study length 104 weeks) was 568 mg/kg/day and the TD50 (mouse, strain B6C3F1, females, by gavage, site: lung, lesion: alveolar/bronchiolar adenoma + alveolar/bronchiolar carcinoma, dosed 103 weeks, study length 104 weeks) was 4410 mg/kg/day. For the same molecule, the TD50 (mouse, strain B6C3F1, males, by gavage, site: any site (literature study), lesion: several types, types named in the paper, dosed 103 weeks, study length 104 weeks) was 217 mg/kg/day (inactive), the TD50 (mouse, strain B6C3F1, males, by gavage, site: liver, lesion: hepatocellular adenoma + hepatocellular carcinoma + neoplastic nodule, dosed 103 weeks, study length 104 weeks) was 230 mg/kg/day and the TD50 (mouse, strain B6C3F1, males, by gavage, site: lung, lesion: alveolar/bronchiolar adenoma + alveolar/bronchiolar carcinoma, dosed 103 weeks, study length 104 weeks) was 1130 mg/kg/day. For the same molecule, the TD50 (mouse, strain Swiss, females, in drinking water, site: liver, lesion: hemangioma, dosed 52 weeks, study length 52 weeks) was 24.8 mg/kg/day, the TD50 (mouse, strain Swiss, females, in drinking water, site: liver, lesion: hepatoma, dosed 52 weeks, study length 52 weeks) was 4.62 mg/kg/day and the TD50 (mouse, strain Swiss, females, in drinking water, site: liver, lesion: hyperplastic nodule, dosed 52 weeks, study length 52 weeks) was 44.3 mg/kg/day. The TD50 (mouse, strain Swiss, females, in drinking water, site: liver, lesion: several types, types named in the paper, dosed 52 weeks, study length 52 weeks) was 14.1 mg/kg/day, the carcinogen call (mouse, strain Swiss, females, in drinking water, site: lung, lesion: adenoma, dosed 52 weeks, study length 52 weeks) was “negative (inactive)” and the TD50 (rat, strain Fischer 344, females, by gavage, site: any site (literature study), lesion: several types, types named in the paper, dosed 103 weeks, study length 104 weeks) was 164 mg/kg/day. For the same molecule, the TD50 (rat, strain Fischer 344, females, by gavage, site: liver, lesion: hepatocellular adenoma + hepatocellular carcinoma + neoplastic nodule, dosed 103 weeks, study length 104 weeks) was 1950 mg/kg/day, the TD50 (rat, strain Fischer 344, females, by gavage, site: thyroid gland, lesion: follicular-cell adenoma + follicular-cell carcinoma, dosed 103 weeks, study length 104 weeks) was 252 mg/kg/day and the TD50 (rat, strain Fischer 344, males, by gavage, site: adrenal gland, lesion: cortical adenoma, dosed 103 weeks, study length 104 weeks) was 566 mg/kg/day. It also gave a TD50 (rat, strain Fischer 344, males, by gavage, site: adrenal medulla, lesion: pheochromocytoma, dosed 103 weeks, study length 104 weeks) of 184 mg/kg/day, a TD50 (rat, strain Fischer 344, males, by gavage, site: any site (literature study), lesion: several types, types named in the paper, dosed 103 weeks, study length 104 weeks) of 41.8 mg/kg/day and a TD50 (rat, strain Fischer 344, males, by gavage, site: liver, lesion: hepatocellular adenoma + hepatocellular carcinoma + neoplastic nodule, dosed 103 weeks, study length 104 weeks) of 665 mg/kg/day. It also gave a TD50 (rat, strain Fischer 344, males, by gavage, site: pancreatic islets + thyroid gland, lesion: islet-cell adenoma + follicular-cell adenoma + follicular-cell carcinoma, dosed 103 weeks, study length 104 weeks) of 67.7 mg/kg/day, a TD50 (rat, strain Fischer 344, males, by gavage, site: pancreatic islets, lesion: islet-cell adenoma + islet-cell carcinoma, dosed 103 weeks, study length 104 weeks) of 90.3 mg/kg/day and a TD50 (rat, strain Fischer 344, males, by gavage, site: pancreatic islets, lesion: islet-cell adenoma, dosed 103 weeks, study length 104 weeks) of 80.5 mg/kg/day. The TD50 (rat, strain Fischer 344, males, by gavage, site: subcutaneous tissue, lesion: fibrosarcoma + fibroma, dosed 103 weeks, study length 104 weeks) was 195 mg/kg/day, the TD50 (rat, strain Fischer 344, males, by gavage, site: testis, lesion: interstitial-cell tumor, dosed 103 weeks, study length 104 weeks) was 39.8 mg/kg/day and the TD50 (rat, strain Fischer 344, males, by gavage, site: thyroid gland, lesion: follicular-cell adenoma + follicular-cell carcinoma, dosed 103 weeks, study length 104 weeks) was 113 mg/kg/day. For the same molecule, the TD50 (rat, strain Fischer 344, males, by gavage, site: thyroid gland, lesion: follicular-cell adenoma, dosed 103 weeks, study length 104 weeks) was 206 mg/kg/day and the TD50 (rat, strain Fischer 344, males, by gavage, site: thyroid gland, lesion: follicular-cell carcinoma, dosed 103 weeks, study length 104 weeks) was 236 mg/kg/day.
In the case of `CC(=O)[O][Sn]([c]1ccccc1)([c]1ccccc1)[c]1ccccc1`, the TD50 (mouse, strain B6AKF1, females, oral dosing, site: any site (literature study), lesion: several types, types named in the paper, dosed 76 weeks, study length 76 weeks) is reported as 437 mg/kg/day (inactive), the carcinogen call (mouse, strain B6AKF1, females, oral dosing, site: liver, lesion: hepatoma, dosed 76 weeks, study length 76 weeks) is reported as “negative (inactive)” and the TD50 (mouse, strain B6AKF1, females, oral dosing, site: lung, lesion: adenoma, dosed 76 weeks, study length 76 weeks) is reported as 964 mg/kg/day (inactive). The TD50 (mouse, strain B6AKF1, males, oral dosing, site: any site (literature study), lesion: several types, types named in the paper, dosed 76 weeks, study length 76 weeks) was 307 mg/kg/day (inactive), the TD50 (mouse, strain B6AKF1, males, oral dosing, site: liver, lesion: hepatoma, dosed 76 weeks, study length 76 weeks) was 241 mg/kg/day (inactive) and the carcinogen call (mouse, strain B6AKF1, males, oral dosing, site: lung, lesion: adenoma, dosed 76 weeks, study length 76 weeks) was “negative (inactive)”. For the same molecule, the TD50 (mouse, strain B6C3F1, females, oral dosing, site: any site (literature study), lesion: several types, types named in the paper, dosed 76 weeks, study length 76 weeks) was 284 mg/kg/day (inactive), the TD50 (mouse, strain B6C3F1, females, oral dosing, site: liver, lesion: hepatoma, dosed 76 weeks, study length 76 weeks) was 909 mg/kg/day (inactive) and the TD50 (mouse, strain B6C3F1, females, oral dosing, site: lung, lesion: adenoma, dosed 76 weeks, study length 76 weeks) was 440 mg/kg/day (inactive). The TD50 (mouse, strain B6C3F1, males, oral dosing, site: any site (literature study), lesion: several types, types named in the paper, dosed 76 weeks, study length 76 weeks) was 117 mg/kg/day (inactive), the TD50 (mouse, strain B6C3F1, males, oral dosing, site: liver, lesion: hepatoma, dosed 76 weeks, study length 76 weeks) was 407 mg/kg/day (inactive) and the TD50 (mouse, strain B6C3F1, males, oral dosing, site: lung, lesion: adenoma, dosed 76 weeks, study length 76 weeks) was 262 mg/kg/day (inactive).

— PubChem BioAssay AID1745844 (Carcinogenic Potency Database (CPDB), 2022)
